Reference: patent US5340591A, “Method of producing a solid dispersion of the sparingly water-soluble drug, nilvadipine” (Fujisawa Pharmaceutical Co., Ltd., priority 1992, dated 1994)
Converted amounts (≈) assume the structure as drawn.

Test: Solubility of nilvadipine bulk substance
Format: physicochemical
Conditions: J.P.

solubility (1st fluid): 1.3 µg/mL (≈ 3.37 µM)
solubility (2nd fluid): 1 µg/mL (≈ 2.59 µM)
Structure (SMILES): COC(=O)C1=C(C#N)NC(C)=C(C(=O)OC(C)C)C1c1cccc([N+](=O)[O-])c1 (centres unmarked) [nilvadipine bulk substance, nilvadipine]
